Earlier results on one molecule are cited in publication PMC7761982, “FDA-Approved Drugs with Potent In Vitro Antiviral Activity against Severe Acute Respiratory Syndrome Coronavirus 2” (Pharmaceuticals, 2020).

Molecules are shown by their SMILES.

By IC50 is commonly meant the concentration that gives 50% inhibition.

In this series the test system is SARS-CoV-2. Conditions: in vitro; read-out: IC50 against SARS-CoV-2 (reported); cited from earlier work.

Turning to `CC(=O)Oc1ccccc1C(=O)Nc1ncc([N+](=O)[O-])s1` [Nitazoxanide], the IC50 is 2.12 µM.
